According to ChEMBL document CHEMBL1151217, “New cytotoxic terpenoids from the wood of Vepris punctata from the Madagascar Rainforest” (J Nat Prod, 2004):
Converted amounts (≈) assume the structure as drawn.

The molecules below were run on A2780 (assay: Cytotoxicity against human A2780 cells).
Format: functional, cell-based

`CC(C)=C1C/C=C(\C)CC/C=C(\C)CC1` and `CC1=C2C/C=C(\C)CC/C=C(\C)C[C@@H]2OC1=O` [GLECHOMANOLIDE] are within 1.5-fold of each other in IC50: 6.4 mg/L (≈ 31.3 µM) for the first, 5.3 mg/L (≈ 22.8 µM) for the second.

`C[C@H]1[C@H](C)CC[C@]2(C)CC[C@]3(C)C(=CC[C@@H]4[C@@]5(C)CC[C@H](O)C(C)(C)[C@@H]5CC[C@]43C)[C@H]12` and `CC1(C)CC[C@]2(C)CC=C3[C@]4(C)CC[C@H]5C(C)(C)[C@H](O)CC[C@]5(C)[C@H]4CC[C@@]3(C)[C@@H]2C1` are within 1.5-fold of each other in IC50: 20.6 mg/L (≈ 48.3 µM) for the first, 24.4 mg/L (≈ 57.2 µM) for the second.

`CC(=O)O[C@H]1O[C@H]2C[C@@]13CC=C1[C@]4(C)[C@@H]5O[C@@H]5[C@H]5C(C)(C)[C@H](O)CC[C@]5(C)[C@H]4CC[C@@]1(C)[C@@H]3CC2(C)C` and `CC1(C)CC[C@]2(C)CC=C3[C@]4(C)CC[C@H]5C(C)(C)[C@@H](O)CC[C@]5(C)[C@H]4CC[C@@]3(C)[C@@H]2C1` [TARAXEROL] are within 1.5-fold of each other in IC50: 21.5 mg/L (≈ 41.9 µM) for the first, 21.8 mg/L (≈ 51.1 µM) for the second.

`CC1=C2C[C@H]3O[C@]3(C)CC[C@H]3O[C@@]3(C)C[C@@H]2OC1=O` and `C=C[C@]1(C)C[C@@H]2OC(=O)C(C)=C2C[C@H]1C(=C)C` [ISOGERMAFURENOLIDE] are within 1.5-fold of each other in IC50: 3.8 mg/L (≈ 14.4 µM) for the first, 4.5 mg/L (≈ 19.4 µM) for the second.

`C=C(C)[C@@H]1CC[C@]2(C)CC[C@]3(C)[C@H](CC[C@@H]4[C@@]5(C)CC[C@H](OC(C)=O)C(C)(C)[C@@H]5CC[C@]43C)[C@@H]12` [LUPENYL ACETATE] and `C=C(C)[C@@H]1CC[C@]2(C)CC[C@]3(C)[C@H](CC[C@@H]4[C@@]5(C)CC[C@H](O)C(C)(C)[C@@H]5CC[C@]43C)[C@@H]12` [LUPEOL] are within 1.5-fold of each other in IC50: 22.6 mg/L for the first, 26.4 mg/L (≈ 61.9 µM) for the second.
